Experimental data as given in paper PMC11079024, “Identification of a family of species-selective complex I inhibitors as potential anthelmintics” (Nature Communications, 2024).
Where “and” joins values, the source holds several entries; their conditions need not be identical. Equal values may be shown once. Read-outs that look alike come from different tables or passages of the source.

Legend:
[1] = target: B. taurus (heart) complex I (Bos taurus, UniProt P03887+P17694+P42026); experiment: biochemical; assay type: biochemical; conditions: for IC50: read-out: B. taurus Complex I IC50
B. taurus (heart) complex I, sequence (P03887 whole entry): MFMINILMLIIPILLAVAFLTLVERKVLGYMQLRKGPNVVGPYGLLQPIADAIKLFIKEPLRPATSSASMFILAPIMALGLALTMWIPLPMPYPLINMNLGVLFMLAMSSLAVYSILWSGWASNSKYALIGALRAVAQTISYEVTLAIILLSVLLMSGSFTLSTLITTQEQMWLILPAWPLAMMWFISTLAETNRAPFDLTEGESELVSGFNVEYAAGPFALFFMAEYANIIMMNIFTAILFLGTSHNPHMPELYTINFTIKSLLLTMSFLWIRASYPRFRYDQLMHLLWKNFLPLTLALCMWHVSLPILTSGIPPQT
B. taurus (heart) complex I, sequence (P17694 34-463): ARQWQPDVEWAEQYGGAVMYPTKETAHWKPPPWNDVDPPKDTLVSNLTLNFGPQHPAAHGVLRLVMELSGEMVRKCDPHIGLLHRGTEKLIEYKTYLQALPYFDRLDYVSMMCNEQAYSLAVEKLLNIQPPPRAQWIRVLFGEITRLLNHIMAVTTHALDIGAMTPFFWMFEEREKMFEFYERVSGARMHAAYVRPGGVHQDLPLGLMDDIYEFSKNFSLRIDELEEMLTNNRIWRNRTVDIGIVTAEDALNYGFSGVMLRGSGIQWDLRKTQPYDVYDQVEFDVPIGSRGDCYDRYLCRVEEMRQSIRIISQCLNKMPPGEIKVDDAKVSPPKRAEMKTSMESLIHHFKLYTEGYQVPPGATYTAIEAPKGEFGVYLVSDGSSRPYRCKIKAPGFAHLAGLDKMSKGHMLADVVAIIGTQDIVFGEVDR
B. taurus (heart) complex I, sequence (P42026 38-216): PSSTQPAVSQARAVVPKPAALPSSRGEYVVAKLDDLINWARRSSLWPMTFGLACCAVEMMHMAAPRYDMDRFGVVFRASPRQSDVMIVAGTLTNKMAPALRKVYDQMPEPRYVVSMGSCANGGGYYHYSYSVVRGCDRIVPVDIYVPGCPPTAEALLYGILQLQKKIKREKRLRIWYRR
Procedure, shortened: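 Complex I activity followed as DCIP reduction (600 nm, 30 s reads, 15 min) with 80 μM NADH and 60 μM decylubiquinone in 25 mM KPi pH 7.5 containing 2 μM antimycin A and 2 mM KCN. Freeze-thawed mouse or bovine heart mitochondria at 0.2 mg/mL; initial-rate percent of solvent control, single-point 100 μM or dose-response.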

[2] = test system: L1 wild-type C. elegans; experiment: microbe, parasite or virus in culture; conditions: Caenorhabditis elegans, read-out: C. elegans KCN Survival Assay LC50, estimated from fitted dose-response curves; mean of at least two biological replicates
[3] = test system: ben-1 mutant (ECA882) C. elegans; experiment: microbe, parasite or virus in culture; conditions: Caenorhabditis elegans; for viability at 15.6 µM / viability at 31.3 µM / viability at 62.5 µM / viability at 125 µM / viability at 250 µM / viability at 500 µM / viability at 1000 µM: read-out: C. elegans ben-1(e1880) development/viability
Procedure, shortened: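 L1 larvae (~2 worms/μL in M9) in liquid NGM with 2-fold concentrated E. coli HB101, compound at 1% DMSO, 6 days at 20 °C shaking 165 rpm. Well images scored as summed worm-associated pixels, normalized to DMSO controls; relative viability averaged over at least three biological replicates.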

[4] = in vitro; conditions: human
[5] = test system: L1 wild-type C. elegans; conditions: for Screen "Hit" / Relative Motility: 50 μM; for Relative Motility: worm motility 3 hours after removal of KCN, relative to DMSO controls, single biological replicate
[6] = read-out: C. elegans (ben-1) Development & Viability Assay LC50
[7] = read-out: C. elegans ben-1 log10 LC50 (converted)
[8] = hit = relative motility below 0.25 3 hours after removal of KCN
[9] = Dose 0.2 µM, mean of at least three biological replicates

## Brc1ccc(Cn2cnc3ccccc32)cc1 [Compound 5542661]
[1]; B. taurus heart mitochondria, estimated from fitted dose-response curves
  IC50: 3.35 µM
[1]; log10 of IC50 in µM, B. taurus mitochondria
  Log IC50 B. taurus complex I: 0.53 µM
[2]
  LC50: 7.75 µM
[3]; [6]
  LC50: 41.4 µM
[3]; [7]
  LC50: 41.4 µM
[4]
  CC50 at 2 days: > 100 µM
[5]; KCN survival assay, hit = relative motility below 0.25
  Screen "Hit": Y (hits were identified as compounds that reduced relative motility below 0.25 (75% reduction))

## CCCn1c(COc2ccc(C)cc2)nc2ccccc21 [Compound 6944471]
[2]
  LC50: 10.6 µM
[3]; [6]
  LC50: > 1000 µM
[3]
  viability at 15.6 µM: 98%
  viability at 31.3 µM: 100%
  viability at 62.5 µM: 100%
  viability at 125 µM: 100%
  viability at 250 µM: 100%
  viability at 500 µM: 62.1%
  viability at 1000 µM: 100%
[3]; read-out: C. elegans ben-1 LC50
  LC50: > 500 µM
[3]; [7]
  LC50: > 500 µM
[5]; [8]
  Screen "Hit": Y (hits were identified as compounds that reduced relative motility below 0.25 (75% reduction))
[5]
  Relative Motility: 0.170
[5]; [9]
  C. elegans KCN Survival: 0.888
[5]; Dose 0.39 µM
  C. elegans KCN Survival: 0.949
[5]; Dose 1.56 µM
  C. elegans KCN Survival: 1.451
[5]; Dose 3.13 µM
  C. elegans KCN Survival: 0.820
[5]; Dose 6.25 µM
  C. elegans KCN Survival: 0.671
[5]; Dose 12.5 µM
  C. elegans KCN Survival: 0.270
[5]; Dose 25 µM
  C. elegans KCN Survival: 0.341
[5]; Dose 50 µM
  C. elegans KCN Survival: 0.000
[5]; Dose 100 µM
  C. elegans KCN Survival: 0.000

## Cc1ccc(CSCc2nc3ccccc3[nH]2)cc1 [Compound 7121781]
[2]
  LC50: 9.79 µM
[3]; [6]
  LC50: 468 µM
[3]
  viability at 15.6 µM: 87.2%
  viability at 31.3 µM: 91.7%
  viability at 62.5 µM: 100%
  viability at 125 µM: 87.1%
  viability at 250 µM: 86.1%
  viability at 500 µM: 47.1%
  viability at 1000 µM: 8.1%
[3]; [7]
  LC50: 468 µM
[4]
  CC50 at 2 days: 74.2 µM
[4]; HEK293 cells (Flp-In-293), HEK293 viability, Dose 12.5 µM
  viability at 2 days, 12.5 µM: 90%
[4]; HEK293 cells (Flp-In-293), HEK293 viability, Dose 25 µM
  viability at 2 days, 25 µM: 91.3%
[4]; HEK293 cells (Flp-In-293), HEK293 viability, Dose 50 µM
  viability at 2 days, 50 µM: 64.3%
[4]; HEK293 cells (Flp-In-293), HEK293 viability, Dose 100 µM
  viability at 2 days, 100 µM: 28.3%
[4]; HEK293 viability, Dose 3.13 µM
  viability: 86.1%
[4]; HEK293 viability, Dose 6.25 µM
  viability: 87.2%
[5]; [8]
  Screen "Hit": Y (hits were identified as compounds that reduced relative motility below 0.25 (75% reduction))
[5]
  Relative Motility: 0.077
[5]; [9]
  C. elegans KCN Survival: 1.008
[5]; Dose 0.39 µM
  C. elegans KCN Survival: 0.850
[5]; Dose 1.56 µM
  C. elegans KCN Survival: 0.802
[5]; Dose 3.13 µM
  C. elegans KCN Survival: 0.857
[5]; Dose 6.25 µM
  C. elegans KCN Survival: 0.615
[5]; Dose 12.5 µM
  C. elegans KCN Survival: 0.348
[5]; Dose 25 µM
  C. elegans KCN Survival: 0.053
[5]; Dose 50 µM
  C. elegans KCN Survival: 0.003
[5]; Dose 100 µM
  C. elegans KCN Survival: 0.000

## COc1cc2c(cc1OC)C(C(C)c1ccc(CC(C)C)cc1)=NCC2 (stereo not drawn) [NPD10504]
[1]; B. taurus, dose 0.0001 µM, Mean of replicates, read-out: Complex I activity, dose-response data
  activity at 0.0001 µM: 107%
[1]; B. taurus, dose 0.0001 µM, individual replicates (Rep)
  Complex I activity, dose-response data: 117.793 and 105.069 and 91.702 and 112.227
[1]; B. taurus, dose 0.0005 µM, Mean of replicates, read-out: Complex I activity, dose-response data
  activity at 0.0005 µM: 106%
[1]; B. taurus, dose 0.0005 µM, individual replicates (Rep)
  Complex I activity, dose-response data: 109.504 and 97.187 and 111.197
[1]; B. taurus, dose 0.0005 µM, individual replicates (Rep), read-out: Complex I activity, dose-response data
  activity at 0.0005 µM: 106%
[1]; B. taurus, dose 0.001 µM, Mean of replicates, read-out: Complex I activity, dose-response data
  activity at 0.001 µM: 99.9%
[1]; B. taurus, dose 0.001 µM, individual replicates (Rep)
  Complex I activity, dose-response data: 98.069 and 105.385 and 87.764 and 108.494
[1]; B. taurus, dose 0.0025 µM, Mean of replicates, read-out: Complex I activity, dose-response data
  activity at 0.0025 µM: 103%
[1]; B. taurus, dose 0.0025 µM, individual replicates (Rep)
  Complex I activity, dose-response data: 100.000 and 97.046 and 110.425
[1]; B. taurus, dose 0.0025 µM, individual replicates (Rep), read-out: Complex I activity, dose-response data
  activity at 0.0025 µM: 106%
[1]; B. taurus, dose 0.005 µM, Mean of replicates, read-out: Complex I activity, dose-response data
  activity at 0.005 µM: 95.2%
[1]; B. taurus, dose 0.005 µM, individual replicates (Rep)
  Complex I activity, dose-response data: 92.608 and 94.796 and 95.624
[1]; B. taurus, dose 0.005 µM, individual replicates (Rep), read-out: Complex I activity, dose-response data
  activity at 0.005 µM: 97.7%
[1]; B. taurus, dose 0.013 µM, Mean of replicates, read-out: Complex I activity, dose-response data
  activity at 0.013 µM: 101%
[1]; B. taurus, dose 0.013 µM, individual replicates (Rep)
  Complex I activity, dose-response data: 117.931 and 88.068 and 92.546 and 105.663
[1]; B. taurus, dose 0.025 µM, Mean of replicates, read-out: Complex I activity, dose-response data
  activity at 0.025 µM: 101%
[1]; B. taurus, dose 0.025 µM, individual replicates (Rep)
  Complex I activity, dose-response data: 94.298 and 94.233 and 109.524
[1]; B. taurus, dose 0.025 µM, individual replicates (Rep), read-out: Complex I activity, dose-response data
  activity at 0.025 µM: 107%
[1]; B. taurus, dose 0.063 µM, Mean of replicates, read-out: Complex I activity, dose-response data
  activity at 0.063 µM: 90.7%
[1]; B. taurus, dose 0.063 µM, individual replicates (Rep)
  Complex I activity, dose-response data: 92.397 and 91.561 and 90.734
[1]; B. taurus, dose 0.063 µM, individual replicates (Rep), read-out: Complex I activity, dose-response data
  activity at 0.063 µM: 88%
[1]; B. taurus, dose 0.125 µM, Mean of replicates, read-out: Complex I activity, dose-response data
  activity at 0.125 µM: 83.6%
[1]; B. taurus, dose 0.125 µM, individual replicates (Rep)
  Complex I activity, dose-response data: 80.676 and 85.091 and 80.824
[1]; B. taurus, dose 0.125 µM, individual replicates (Rep), read-out: Complex I activity, dose-response data
  activity at 0.125 µM: 87.9%
[1]; B. taurus, dose 0.313 µM, Mean of replicates, read-out: Complex I activity, dose-response data
  activity at 0.313 µM: 98%
[1]; B. taurus, dose 0.313 µM, individual replicates (Rep)
  Complex I activity, dose-response data: 97.994 and 101.828 and 86.358
[1]; B. taurus, dose 0.313 µM, individual replicates (Rep), read-out: Complex I activity, dose-response data
  activity at 0.313 µM: 106%
[1]; B. taurus, dose 0.625 µM, Mean of replicates, read-out: Complex I activity, dose-response data
  activity at 0.625 µM: 101%
[1]; B. taurus, dose 0.625 µM, individual replicates (Rep)
  Complex I activity, dose-response data: 121.834 and 83.881 and 99.417 and 98.267
[1]; B. taurus, dose 1.5 µM, Mean of replicates, read-out: Complex I activity, dose-response data
  activity at 1.5 µM: 96.4%
[1]; B. taurus, dose 1.5 µM, individual replicates (Rep)
  Complex I activity, dose-response data: 115.721 and 89.117 and 89.942 and 90.667
[1]; B. taurus, dose 3 µM, Mean of replicates, read-out: Complex I activity, dose-response data
  activity at 3 µM: 85.9%
[1]; B. taurus, dose 3 µM, individual replicates (Rep)
  Complex I activity, dose-response data: 100.146 and 69.610 and 88.192 and 85.467
[1]; B. taurus, dose 15 µM, Mean of replicates, read-out: Complex I activity, dose-response data
  activity at 15 µM: 36.5%
[1]; B. taurus, dose 15 µM, individual replicates (Rep)
  Complex I activity, dose-response data: 38.809 and 32.507 and 35.200
[1]; B. taurus, dose 15 µM, individual replicates (Rep), read-out: Complex I activity, dose-response data
  activity at 15 µM: 39.3%
[1]; B. taurus, dose 37.5 µM, Mean of replicates, read-out: Complex I activity, dose-response data
  activity at 37.5 µM: 5.69%
[1]; B. taurus, dose 37.5 µM, individual replicates (Rep)
  Complex I activity, dose-response data: 3.348 and 10.986 and 0.292 and 8.133
[1]; B. taurus, dose 75 µM, Mean of replicates, read-out: Complex I activity, dose-response data
  activity at 75 µM: 3.63%
[1]; B. taurus, dose 75 µM, individual replicates (Rep)
  Complex I activity, dose-response data: 0.000 and 11.602 and 2.933
[1]; heart mitochondria
  IC50: 11.3 µM
[4]; HEK293 Cell Viability Assay LC50, 2 days exposure
  CC50 at 2 days: 36.6 µM

## C=C(C)[C@H]1Cc2c(ccc3c2O[C@@H]2COc4cc(OC)c(OC)cc4[C@@H]2C3=O)O1 [Rotenone, reference compound]
[4]
  CC50: < 0.39 µM
[4]; HEK293 viability, dose 0.4 µM, Mean of replicates
  viability: 33.2%
[4]; HEK293 viability, dose 0.8 µM, Mean of replicates
  viability: 34.5%
[4]; HEK293 viability, dose 0.8 µM, individual replicate (Rep)
  viability: 37.4%
[4]; HEK293 viability, dose 3.1 µM, Mean of replicates
  viability: 47%
[4]; HEK293 viability, dose 3.1 µM, individual replicate (Rep)
  viability: 46.6%
[4]; HEK293 viability, dose 6.3 µM, Mean of replicates
  viability: 32.5%
[4]; HEK293 viability, dose 6.3 µM, individual replicate (Rep)
  viability: 30.9%
[4]; HEK293 viability, dose 12.5 µM, Mean of replicates
  viability: 26.9%
[4]; HEK293 viability, dose 12.5 µM, individual replicate (Rep)
  viability: 27.1%
[4]; HEK293 viability, dose 25 µM, Mean of replicates
  viability: 21.4%
[4]; HEK293 viability, dose 25 µM, individual replicate (Rep)
  viability: 20.1%
[4]; HEK293 viability, dose 50 µM, Mean of replicates
  viability: 20.1%
[4]; HEK293 viability, dose 50 µM, individual replicate (Rep)
  viability: 20.4%
[5]; N2 (wild type), caenorhabditis elegans
  LC50: 0.86 µM
